Experimental data: patent US6953779B2, “Melanocortin receptor antagonists and modulations of melanocortin receptor activity” (The Regents of the University of California, priority 1998, dated 2005)
Square brackets hold non-standard residues; d marks the D form. Peptide text beside a SMILES is read from it. * marks the point of attachment. d2Nal = N[C@H](Cc1ccc2ccccc2c1)C(=O)O; Benzoyl(3-OMe) = COc1cccc(C(=O)*)c1; Benzoyl(4-OMe) = COc1ccc(C(=O)*)cc1; d2Thi = N[C@H](Cc1cccs1)C(=O)O

Tested on: heat-induced edema in the anesthetized rat's paw
Assay: Suppression of heat-induced edema in the anesthetized rat's paw (anti-inflammatory)
Assay type: in vivo
Details: i.v.; suppression of heat-induced edema in the anesthetized rat's paw

Row | SMILES | Anti-Inflammatory ED50
1 | CC[C@H](C)[C@H](NC(=O)[C@@H](Cc1ccc2ccccc2c1)NC(=O)[C@H](CC(C)C)NC(=O)[C@H](CC(C)C)NC(=O)[C@H](CCCCN)NC(=O)[C@H](CCCNC(=N)N)NC(=O)c1ccc(OC)cc1)C(=O)N[C@H](CC(C)C)C(N)=O [S-114, p-anisoyl-Arg-Lys-Leu-Leu-D-Nal-Ile-D-Leu-NH2] ({Benzoyl(4-OMe)}-RKLL[d2Nal]I[dL]-NH2) | 0.38 (0.16-0.91) mg/kg
2 | CC[C@H](C)[C@H](NC(=O)[C@@H](Cc1ccc(O)cc1)NC(=O)[C@H](CC(C)C)NC(=O)[C@H](CC(C)C)NC(=O)[C@H](CCCCN)NC(=O)[C@H](CCCNC(=N)N)NC(=O)c1ccc(OC)cc1)C(=O)N[C@H](CC(C)C)C(N)=O [S-116, p-anisoyl-Arg-Lys-Leu-Leu-D-Tyr-Ile-D-Leu-NH2] ({Benzoyl(4-OMe)}-RKLL[dY]I[dL]-NH2) | 0.080 (0.03-0.20) mg/kg
3 | CC[C@H](C)[C@H](NC(=O)[C@@H](Cc1c[nH]c2ccccc12)NC(=O)[C@H](CC(C)C)NC(=O)[C@H](CC(C)C)NC(=O)[C@H](CCCCN)NC(=O)[C@H](CCCNC(=N)N)NC(=O)c1ccc(OC)cc1)C(=O)N[C@H](CC(C)C)C(N)=O [S-117, p-anisoyl-Arg-Lys-Leu-Leu-D-Trp-Ile-D-Leu-NH2] ({Benzoyl(4-OMe)}-RKLL[dW]I[dL]-NH2) | 0.16 (0.050-0.40) mg/kg
4 | CC[C@H](C)[C@H](NC(=O)[C@@H](Cc1cccs1)NC(=O)[C@H](CC(C)C)NC(=O)[C@H](CC(C)C)NC(=O)[C@H](CCCCN)NC(=O)[C@H](C)NC(=O)c1ccc(OC)cc1)C(=O)N[C@H](CC(C)C)C(N)=O [S-118, p-anisoyl-Ala-Lys-Leu-Leu-D-Thi-Ile-D-Leu-NH2] ({Benzoyl(4-OMe)}-AKLL[d2Thi]I[dL]-NH2) | 0.035 (0.012-0.10) mg/kg
5 | CC[C@H](C)[C@H](NC(=O)[C@@H](Cc1cccs1)NC(=O)[C@H](CC(C)C)NC(=O)[C@H](C)NC(=O)[C@H](CCCCN)NC(=O)[C@H](CCCNC(=N)N)NC(=O)c1ccc(OC)cc1)C(=O)N[C@H](CC(C)C)C(N)=O [S-160, p-anisoyl-Arg-Lys-Ala-Leu-D-Thi-Ile-D-Leu-NH2] ({Benzoyl(4-OMe)}-RKAL[d2Thi]I[dL]-NH2) | 0.18 (0.07-0.49) mg/kg
6 | CC[C@H](C)[C@H](NC(=O)[C@@H](Cc1cccs1)NC(=O)[C@H](CC(C)C)NC(=O)[C@H](CC(C)C)NC(=O)[C@H](CCCCN)NC(=O)[C@H](CCCNC(=N)N)NC(=O)c1ccc(OC)cc1)C(=O)N[C@H](C)C(N)=O [S-162, p-anisoyl-Arg-Lys-Leu-Leu-D-Thi-Ile-D-Ala-NH2] ({Benzoyl(4-OMe)}-RKLL[d2Thi]I[dA]-NH2) | 0.24 (0.11-0.50) mg/kg
7 | COc1ccc(C(=O)N[C@@H](CCCNC(=N)N)C(=O)N[C@@H](CCCCN)C(=O)N[C@@H](CC(C)C)C(=O)N[C@@H](CC(C)C)C(=O)N[C@H](Cc2cccs2)C(=O)N[C@@H](C)C(=O)N[C@H](CC(C)C)C(N)=O)cc1 [S-163, p-anisoyl-Arg-Lys-Leu-Leu-D-Thi-Ala-D-Leu-NH2] ({Benzoyl(4-OMe)}-RKLL[d2Thi]A[dL]-NH2) | 0.067 (0.030-0.15) mg/kg
8 | CC[C@H](C)[C@H](NC(=O)[C@@H](C)NC(=O)[C@H](CC(C)C)NC(=O)[C@H](CC(C)C)NC(=O)[C@H](CCCCN)NC(=O)[C@H](CCCNC(=N)N)NC(=O)c1ccc(OC)cc1)C(=O)N[C@H](CC(C)C)C(N)=O [S-164, p-anisoyl-Arg-Lys-Leu-Leu-D-Ala-Ile-D-Leu-NH2] ({Benzoyl(4-OMe)}-RKLL[dA]I[dL]-NH2) | 0.42 (0.18-0.96) mg/kg
9 | CC[C@H](C)[C@H](NC(=O)[C@@H](Cc1cccs1)NC(=O)[C@H](C)NC(=O)[C@H](CC(C)C)NC(=O)[C@H](CCCCN)NC(=O)[C@H](CCCNC(=N)N)NC(=O)c1ccc(OC)cc1)C(=O)N[C@H](CC(C)C)C(N)=O [S-165, p-anisoyl-Arg-Lys-Leu-Ala-D-Thi-Ile-D-Leu-NH2] ({Benzoyl(4-OMe)}-RKLA[d2Thi]I[dL]-NH2) | 0.046 (0.015-0.14) mg/kg
10 | CC[C@H](C)[C@H](NC(=O)[C@@H](Cc1cccs1)NC(=O)[C@H](CC(C)C)NC(=O)[C@H](CC(C)C)NC(=O)[C@H](C)NC(=O)[C@H](CCCNC(=N)N)NC(=O)c1ccc(OC)cc1)C(=O)N[C@H](CC(C)C)C(N)=O [S-166, p-anisoyl-Arg-Ala-Leu-Leu-D-Thi-Ile-D-Leu-NH2] ({Benzoyl(4-OMe)}-RALL[d2Thi]I[dL]-NH2) | >2 mg/kg
11 | CC[C@H](C)[C@H](NC(=O)[C@@H](Cc1cccs1)NC(=O)[C@H](CC(C)C)NC(=O)[C@H](CC(C)C)NC(=O)[C@H](CCCCN)NC(=O)[C@H](C)NC(=O)c1ccc(OC)cc1)C(=O)N[C@H](CC(C)C)C(N)=O [S-167, p-anisoyl-Ala-Lys-Leu-Leu-D-Thi-Ile-D-Leu-NH2] ({Benzoyl(4-OMe)}-AKLL[d2Thi]I[dL]-NH2) | >2 mg/kg

Same assay, conditions: in words

Row | SMILES | anti-edema activity
12 | CC[C@H](C)[C@H](NC(=O)[C@@H](CCCNC(=N)N)NC(=O)[C@@H](CCCNC(=N)N)NC(=O)c1ccc(OC)cc1)C(=O)N[C@H](CCCNC(=N)N)C(=O)N1CCC[C@H]1C(=O)N[C@H](CCCCN)C(=O)N[C@H](CC(C)C)C(N)=O [SQW-4, p-anisoyl-D-Arg-D-Arg-Ile-D-Arg-Pro-D-Lys-D-Leu-amide] ({Benzoyl(4-OMe)}-[dR][dR]I[dR]P[dK][dL]-NH2) | active as anti-edema agents
13 | CC[C@H](C)[C@H](NC(=O)[C@H](CCCNC(=N)N)NC(=O)[C@@H](CCCNC(=N)N)NC(=O)c1ccc(OC)cc1)C(=O)N[C@H](CCCNC(=N)N)C(=O)N1CCC[C@H]1C(=O)N[C@H](CCCCN)C(=O)N[C@H](CC(C)C)C(N)=O [SQW-5, p-anisoyl-[D-Arg^6,9, D-Lys^11, D-Leu^12] dynorphin A(6-12)-NH2] ({Benzoyl(4-OMe)}-[dR]RI[dR]P[dK][dL]-NH2) | active as anti-edema agents
14 | CC[C@H](C)[C@H](NC(=O)[C@H](CCCNC(=N)N)NC(=O)[C@H](CCCNC(=N)N)NC(=O)c1cccc(OC)c1)C(=O)N[C@@H](CCCNC(=N)N)C(=O)N1CCC[C@H]1C(=O)N[C@@H](CCCCN)C(=O)N[C@@H](CC(C)C)C(N)=O [SQW-6, m-anisoyl-Arg-Arg-Ile-Arg-Pro-Lys-Leu-amide] ({Benzoyl(3-OMe)}-RRIRPKL-NH2) | active as anti-edema agents

Same assay, conditions: suppression of heat-induced edema in the anesthetized rat's paw; i

Row | SMILES | Anti-Inflammatory ED50 [µmol/kg]
15 | CC[C@H](C)[C@H](NC(=O)[C@H](CCCNC(=N)N)NC(=O)[C@H](CCCNC(=N)N)NC(=O)c1ccc(OC)cc1)C(=O)N[C@H](CCCNC(=N)N)C(=O)N1CCC[C@H]1C(=O)N[C@H](CCCCN)C(=O)N[C@H](CC(C)C)C(N)=O [SQW-2, p-anisoyl-Arg-Arg-Ile-D-Arg-Pro-D-Lys-D-Leu-amide] ({Benzoyl(4-OMe)}-RRI[dR]P[dK][dL]-NH2) | 0.085
16 | CC[C@H](C)[C@H](NC(=O)[C@@H](CCCNC(=N)N)NC(=O)[C@H](CCCNC(=N)N)NC(=O)c1ccc(OC)cc1)C(=O)N[C@H](CCCNC(=N)N)C(=O)N1CCC[C@H]1C(=O)N[C@H](CCCCN)C(=O)N[C@H](CC(C)C)C(N)=O [SQW-3, p-anisoyl-Arg-D-Arg-Ile-D-Arg-Pro-D-Lys-D-Leu-amide] ({Benzoyl(4-OMe)}-R[dR]I[dR]P[dK][dL]-NH2) | 0.095
17 | CC[C@H](C)[C@H](NC(=O)[C@@H](CCCNC(=N)N)NC(=O)[C@@H](CCCNC(=N)N)NC(=O)c1ccc(OC)cc1)C(=O)N[C@H](CCCNC(=N)N)C(=O)N1CCC[C@H]1C(=O)N[C@H](CCCCN)C(=O)N[C@H](CC(C)C)C(N)=O [SQW-4, p-anisoyl-D-Arg-D-Arg-Ile-D-Arg-Pro-D-Lys-D-Leu-amide] ({Benzoyl(4-OMe)}-[dR][dR]I[dR]P[dK][dL]-NH2) | 0.200
18 | CC[C@H](C)[C@H](NC(=O)[C@H](CCCNC(=N)N)NC(=O)[C@@H](CCCNC(=N)N)NC(=O)c1ccc(OC)cc1)C(=O)N[C@H](CCCNC(=N)N)C(=O)N1CCC[C@H]1C(=O)N[C@H](CCCCN)C(=O)N[C@H](CC(C)C)C(N)=O [SQW-5, p-anisoyl-[D-Arg^6,9, D-Lys^11, D-Leu^12] dynorphin A(6-12)-NH2] ({Benzoyl(4-OMe)}-[dR]RI[dR]P[dK][dL]-NH2) | 0.060
19 | CC[C@H](C)[C@H](NC(=O)[C@H](CCCNC(=N)N)NC(=O)[C@H](CCCNC(=N)N)NC(=O)c1cccc(OC)c1)C(=O)N[C@@H](CCCNC(=N)N)C(=O)N1CCC[C@H]1C(=O)N[C@@H](CCCCN)C(=O)N[C@@H](CC(C)C)C(N)=O [SQW-6, m-anisoyl-Arg-Arg-Ile-Arg-Pro-Lys-Leu-amide] ({Benzoyl(3-OMe)}-RRIRPKL-NH2) | 0.51
20 | CC[C@H](C)[C@H](NC(=O)[C@H](CCCNC(=N)N)NC(=O)[C@H](C)NC(=O)c1cccc(OC)c1)C(=O)N[C@@H](CCCNC(=N)N)C(=O)N1CCC[C@H]1C(=O)N[C@@H](CCCCN)C(=O)N[C@@H](CC(C)C)C(N)=O [SQW-7, m-anisoyl-Ala-Arg-Ile-Arg-Pro-Lys-Leu-amide] ({Benzoyl(3-OMe)}-ARIRPKL-NH2) | >1
21 | CC[C@H](C)[C@H](NC(=O)[C@H](C)NC(=O)[C@H](CCCNC(=N)N)NC(=O)c1cccc(OC)c1)C(=O)N[C@@H](CCCNC(=N)N)C(=O)N1CCC[C@H]1C(=O)N[C@@H](CCCCN)C(=O)N[C@@H](CC(C)C)C(N)=O [SQW-8, m-anisoyl-Arg-Ala-Ile-Arg-Pro-Lys-Leu-amide] ({Benzoyl(3-OMe)}-RAIRPKL-NH2) | >1
22 | COc1cccc(C(=O)N[C@@H](CCCNC(=N)N)C(=O)N[C@@H](CCCNC(=N)N)C(=O)N[C@@H](C)C(=O)N[C@@H](CCCNC(=N)N)C(=O)N2CCC[C@H]2C(=O)N[C@@H](CCCCN)C(=O)N[C@@H](CC(C)C)C(N)=O)c1 [SQW-9, m-anisoyl-Arg-Arg-Ala-Arg-Pro-Lys-Leu-amide] ({Benzoyl(3-OMe)}-RRARPKL-NH2) | 0.65
23 | CC[C@H](C)[C@H](NC(=O)[C@H](CCCNC(=N)N)NC(=O)[C@H](CCCNC(=N)N)NC(=O)c1cccc(OC)c1)C(=O)N[C@@H](C)C(=O)N1CCC[C@H]1C(=O)N[C@@H](CCCCN)C(=O)N[C@@H](CC(C)C)C(N)=O [SQW-10, m-anisoyl-Arg-Arg-Ile-Ala-Pro-Lys-Leu-amide] ({Benzoyl(3-OMe)}-RRIAPKL-NH2) | 1.02
24 | CC[C@H](C)[C@H](NC(=O)[C@H](CCCNC(=N)N)NC(=O)[C@H](CCCNC(=N)N)NC(=O)c1cccc(OC)c1)C(=O)N[C@@H](CCCNC(=N)N)C(=O)N[C@@H](C)C(=O)N[C@@H](CCCCN)C(=O)N[C@@H](CC(C)C)C(N)=O [SQW-11, m-anisoyl-Arg-Arg-Ile-Arg-Ala-Lys-Leu-amide] ({Benzoyl(3-OMe)}-RRIRAKL-NH2) | 1.05
25 | CC[C@H](C)[C@H](NC(=O)[C@H](CCCNC(=N)N)NC(=O)[C@H](CCCNC(=N)N)NC(=O)c1cccc(OC)c1)C(=O)N[C@@H](CCCNC(=N)N)C(=O)N1CCC[C@H]1C(=O)N[C@@H](C)C(=O)N[C@@H](CC(C)C)C(N)=O [SQW-12, m-anisoyl-Arg-Arg-Ile-Arg-Pro-Ala-Leu-amide] ({Benzoyl(3-OMe)}-RRIRPAL-NH2) | 0.98
26 | CC[C@H](C)[C@H](NC(=O)[C@H](CCCNC(=N)N)NC(=O)[C@H](CCCNC(=N)N)NC(=O)c1cccc(OC)c1)C(=O)N[C@@H](CCCNC(=N)N)C(=O)N1CCC[C@H]1C(=O)N[C@@H](CCCCN)C(=O)N[C@@H](C)C(N)=O [SQW-13, m-anisoyl-Arg-Arg-Ile-Arg-Pro-Lys-Ala-amide] ({Benzoyl(3-OMe)}-RRIRPKA-NH2) | 2.39
